According to patent publication US20160160234A1, “COMPOSITION FOR TRANSFERRING GENE TO CELL” (ISHIHARA SANGYO KAISHA, LTD., priority 2013, published 2016):

Experiments:
NIH-3T3 cells = experiment: Luciferase gene expression after transfection with pCMV-GL3 plasmid (ONE-Glo Luciferase Assay System); assay type: cell-based
Procedure: NIH-3T3 cells, which are adherent cultured cells, were seeded in a 96-well plate at a cell density of 4×10^3 cells/well one day before transfection.
16.8 μL of a 5 mg/mL sericin PBS solution was added to 1.2 μL of a ¼% sorbitan sesquioleate (Nacalai Tesque, Inc.) ethanol solution, and the mixture was mixed by pipetting.
16.8 μL of a 5 mg/mL sericin PBS solution was added to 1.2 μL of a ¼% sorbitan monooleate (SIGMA) ethanol solution, and the mixture was mixed by pipetting.
0.6 μL of a ⅕% L-α-dioleoyl phosphatidylethanolamine (Wako Pure Chemical Industries, Ltd.; hereinafter referred to as “DOPE”) ethanol solution or 0.6 μL of ethanol was individually added to 0.6 μL of a ⅕% cardiolipin (SIGMA) ethanol solution. 16.8 μL of a 5 mg/mL sericin PBS solution was further added to each mixture, and each of the resulting mixtures was mixed by pipetting.
15 μL of a 1/10 mg/mL pCMV-GL3 plasmid solution was added to 18 μL of each of the above prepared solutions, and each mixture was mixed by pipetting. 7.5 μL of a 1 mg/mL protamine sulfate PBS solution was then added to each of the resulting mixtures, thereby preparing test compositions. Each of these test compositions was added at 15 μL/well to the cell culture media.
11.2 μL of ¼, ½, 3, 5, 20, 30, or 50 mg/mL sericin PBS solution or PBS was individually added to 0.8 μL of a ½% sorbitan sesquioleate (Nacalai Tesque, Inc.) ethanol solution, and each mixture was mixed by pipetting.
10 μL of a 1/10 mg/mL pCMV-GL3 plasmid solution was added to 12 μL of each of the prepared solutions above, and each mixture was mixed by pipetting.

Jurkat cells = experiment: as above; settings: Example 12, lipid ethanol solutions ¼% or ⅕%, 5 mg/mL sericin, 1 mg/mL protamine sulfate, 15 μL/well, next day
RAW264.7 cells = experiment: as above; assay type: cell-based
Procedure: Gene transfer using FuGENE HD transfection reagent (Roche) was performed as follows.
Gene transfer using Polyethylenimine Max (Polyscience) was performed as follows. 13.5 μL of water was added to 1.5 μL of 1 mg/mL Polyethylenimine Max (pH of 7, MW of 25,000).

K562 cells = experiment: as above; assay type: cell-based; settings: Example 16, in combination with the composition of the present invention or Lipofectamine LTX&PLUS reagent
Procedure: The next day, whether gene transfer was achieved was confirmed by measuring the enzyme activity (relative value) of luciferase protein produced from the pCMV-GL3 plasmid by using ONE-Glo Luciferase Assay System (Promega).
K562 cells, which are suspension cultured cells, were seeded in a 96-well plate at a cell density of 2×10^4 cells/well on the day of transfection.
154 μL of a 15 mg/mL sericin PBS solution was added to 11 μL of a ½% sorbitan sesquioleate (Nacalai Tesque, Inc.) ethanol solution, and the mixture was mixed by pipetting.
48 μL of the prepared solution above was added to 40 μL of a 1/10 mg/mL pCMV-GL3 plasmid solution, and the mixture was mixed by pipetting. 20 μL of a 1 mg/mL protamine sulfate PBS solution was then added to prepare a test composition (prepared for each kind of cells; total of three tubes). The test composition was added at 15 μL/well to the cell culture media.
Gene transfer using Lipofectamine LTX&PLUS reagent (Invitrogen) was performed as follows. 0.7 μL of a 1 mg/mL pCMV-GL3 plasmid solution and 0.7 μL of a PLUS reagent were added to 140 μL of Opti-MEM I Reduced Serum Medium (Gibco), and the mixture was allowed to stand for 5 minutes. 2.8 μL of Lipofectamine LTX reagent was further added thereto, and the mixture was allowed to stand for 25 minutes, after which it was added at 20 μL/well to the cell culture media. […]

A549 cells [1] = system: A549 cells
Procedure: A549 cells and NIH-3T3 cells, both of which are adherent cultured cells, were individually seeded in a 96-well plate at a cell density of 4×10^3 cells/well one day before transfection.
84 μL of a 10 mg/mL sericin (Wako Pure Chemical Industries, Ltd., trade name: Pure Sericin) aqueous solution was added to 6 μL of a ½% sorbitan sesquioleate (Nacalai Tesque, Inc.) ethanol solution, and the mixture was mixed by pipetting.
As a virus-derived envelope, a 47.8 HAU/μL inactivated HVJ envelope (GenomONE-CF: registered trademark, produced by Ishihara Sangyo Kaisha, Ltd.) suspension, which is derived from Sendai virus, was used in the experiment.
After 54 μL of PBS was added to 6 μL of the inactivated HVJ envelope suspension, 6 μL of a 2% Triton X-100 PBS solution was added thereto. The mixture was centrifuged at 4° C., 10,000 g for 5 minutes with a high-speed refrigerated microcentrifuge, thereby pelletting down the inactivated HVJ envelope. […] After 2.5 μL of the liquid mixture of the inactivated HVJ envelope and the pCMV-GL3 plasmid was transferred to each tube, 28 μL of a 1/20 mg/mL laminin (SIGMA) aqueous solution or water was individually added thereto, and each mixture was mixed by pipetting. […]

A549 cells [2] = experiment: Gene transfer of pTurboGFP-N plasmid observed with a fluorescence microscope; assay type: cell-based; settings: Example 1, 5 μL/well, next day, FIG. 3
THP-1 cells = experiment: as above; assay type: cell-based; settings: Example 1, 5 μL/well, next day, FIG. 3
[3] = Example 12, lipid ethanol solutions ¼% or ⅕%, 5 mg/mL sericin, 1 mg/mL protamine sulfate, 15 μL/well, next day
[4] = Example 16, in combination with the composition of the present invention or Lipofectamine LTX&PLUS reagent
[5] = Example 11, pCMV-GL3 in inactivated HVJ envelope (component F) in all compositions, 8.1 μL/well, next day

cardiolipin
Luciferase gene expression level (relative value) (NIH-3T3 cells; [3]): makes it possible to introduce a gene | Luciferase gene expression level (relative value) (Jurkat cells): makes it possible to introduce a gene

sorbitan sesquioleate
Luciferase gene expression level (relative value) (NIH-3T3 cells; [3]): makes it possible to introduce a gene | gene expression (NIH-3T3 cells; Example 14, 1/50 to 5/2% sorbitan sesquioleate): gene expression was observed | Luciferase gene expression level (relative value) (NIH-3T3 cells; Example 14, Sorbitan sesquioleate concentration 1/2%, with 10 mg/mL sericin and 1 mg/mL protamine sulfate, 15 μL/well): 1,349,057 | Luciferase gene expression level (relative value) (NIH-3T3 cells; Example 14, Sorbitan sesquioleate concentration 1/10%, with 10 mg/mL sericin and 1 mg/mL protamine sulfate, 15 μL/well): 291,463 | Luciferase gene expression level (relative value) (NIH-3T3 cells; Example 14, Sorbitan sesquioleate concentration 1/50%, with 10 mg/mL sericin and 1 mg/mL protamine sulfate, 15 μL/well): 887 | Luciferase gene expression level (relative value) (NIH-3T3 cells; Example 14, Sorbitan sesquioleate concentration 5/2%, with 10 mg/mL sericin and 1 mg/mL protamine sulfate, 15 μL/well): 425,949 | Luciferase gene expression level (relative value) (Jurkat cells): makes it possible to introduce a gene

O=C(NCCCNc1nc(Nc2cccc(NC(=O)N3CCCC3)c2)ncc1I)c1cccs1 [compound A, N-[3-[[5-iodo-4-[[3-[(2-thienylcarbonyl)amino]propyl]amino]-2-pyrimidinyl]amino]phenyl]-1-pyrrolidinecarboxamide]
improvement in gene expression by compound A used in combination with a gene transfer vector (RAW264.7 cells; [4]): improvement in the gene expression was confirmed | improvement in gene expression by compound A used in combination with a gene transfer vector (RAW264.7 cells; Example 17, in combination with the composition of the present invention, Lipofectamine LTX&PLUS reagent, FuGENE HD transfection reagent, or Polyethylenimine Max): improvement in gene expression was confirmed | improvement in gene expression by compound A used in combination with a gene transfer vector (K562 cells): improvement in the gene expression was confirmed | improvement in gene expression by compound A used in combination with a gene transfer vector (A549 cells [1]; [4]): improvement in the gene expression was confirmed

sorbitan monooleate
Luciferase gene expression level (relative value) (NIH-3T3 cells; [3]): makes it possible to introduce a gene | Luciferase gene expression level (relative value) (Jurkat cells): makes it possible to introduce a gene

protamine sulfate [component C]
Luciferase gene expression level (relative value) (NIH-3T3 cells; [5]): gene transfer was observed | gene transfer (green fluorescent protein TurboGFP observed with a fluorescence microscope) (A549 cells [2]): Almost no gene transfer | gene transfer (green fluorescent protein TurboGFP observed with a fluorescence microscope) (THP-1 cells): Almost no gene transfer | Luciferase gene expression level (relative value) (A549 cells [1]; [5]): gene transfer was observed

Sericin
Luciferase gene expression level (relative value) (NIH-3T3 cells; Example 13, Sericin concentration 0 mg/mL (PBS), with ½% sorbitan sesquioleate and 1 mg/mL protamine sulfate, 15 μL/well): 346 | Luciferase gene expression level (relative value) (NIH-3T3 cells; Example 13, Sericin concentration 3 mg/mL, with ½% sorbitan sesquioleate and 1 mg/mL protamine sulfate, 15 μL/well): 761,785 | Luciferase gene expression level (relative value) (NIH-3T3 cells; Example 13, Sericin concentration 5 mg/mL, with ½% sorbitan sesquioleate and 1 mg/mL protamine sulfate, 15 μL/well): 729,703 | Luciferase gene expression level (relative value) (NIH-3T3 cells; Example 13, Sericin concentration 20 mg/mL, with ½% sorbitan sesquioleate and 1 mg/mL protamine sulfate, 15 μL/well): 762,661 | Luciferase gene expression level (relative value) (NIH-3T3 cells; Example 13, Sericin concentration 30 mg/mL, with ½% sorbitan sesquioleate and 1 mg/mL protamine sulfate, 15 μL/well): 458,447 | Luciferase gene expression level (relative value) (NIH-3T3 cells; Example 13, Sericin concentration 50 mg/mL, with ½% sorbitan sesquioleate and 1 mg/mL protamine sulfate, 15 μL/well): 24,194 | Luciferase gene expression level (relative value) (NIH-3T3 cells; Example 13, Sericin concentration ¼ mg/mL, with ½% sorbitan sesquioleate and 1 mg/mL protamine sulfate, 15 μL/well): 77,190 | Luciferase gene expression level (relative value) (NIH-3T3 cells; Example 13, Sericin concentration ½ mg/mL, with ½% sorbitan sesquioleate and 1 mg/mL protamine sulfate, 15 μL/well): 285,344 | gene expression compared with the case where sericin was not used (NIH-3T3 cells; Example 13, ¼ to 50 mg/mL sericin): gene expression was improved
